Values of other authors, collected in US20250090522A1 (priority 2021, published 2025).
Entries after “also recorded” stand apart in the source; their conditions may differ. Like-named read-outs stand apart in the source and are kept apart here.

Assays:
[1] = not given; remark: listed apart in the source
[2] = not given; remark: listed apart in the source
[3] = test system: SARS-CoV
[4] = test system: MERSCoV
[5] = withdrawn from the US market in 1999
[6] = biological target: H1 receptor (Homo sapiens, UniProt P35367); settings: acidic pH
[7] = test system: histamine induced wheal and flare
[8] = test system: activator protein-1 (AP-1); settings: H1 receptor-dependent and independent mechanisms
[9] = test system: RANTES; settings: dose-dependent manner
[10] = 421 patients with allergy/asthma treated for six months; p<0.001 for all scales
[11] = test system: chronic idiopathic urticaria (CIU); settings: from 5 to 20 mg/day
[12] = test system: human rhinovirus (HRV)
[13] = airway epithelial cells from nose and lung

Sequence of H1 receptor (P35367 whole entry): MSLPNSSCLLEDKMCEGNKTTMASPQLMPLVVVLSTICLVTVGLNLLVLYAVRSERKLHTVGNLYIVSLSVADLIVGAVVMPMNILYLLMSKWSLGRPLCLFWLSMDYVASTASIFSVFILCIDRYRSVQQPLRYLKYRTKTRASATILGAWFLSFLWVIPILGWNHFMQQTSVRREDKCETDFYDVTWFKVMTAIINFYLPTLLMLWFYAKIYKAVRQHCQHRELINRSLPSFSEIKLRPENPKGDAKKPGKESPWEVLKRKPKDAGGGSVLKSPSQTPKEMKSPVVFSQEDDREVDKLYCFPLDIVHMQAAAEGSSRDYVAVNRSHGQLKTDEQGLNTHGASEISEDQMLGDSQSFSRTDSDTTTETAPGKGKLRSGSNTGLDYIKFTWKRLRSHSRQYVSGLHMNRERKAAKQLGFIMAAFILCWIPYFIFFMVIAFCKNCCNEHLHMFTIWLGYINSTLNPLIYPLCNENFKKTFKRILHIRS

## CC(C)(O)c1ccccc1CC[C@@H](SCC1(CC(=O)O)CC1)c1cccc(/C=C/c2ccc3ccc(Cl)cc3n2)c1 [Montelukast]
In vivo
  linear pharmacokinetics to: pharmacokinetics to 50 mg/day
With warfarin, theophylline, digoxin, terfenadine, oral contraceptives, or prednisone
  drug interactions: no drug interactions
[1]; adult patients, 22 weeks
  doses administered without clinically relevant side effects: up to 200 mg/day
[1]; short-term studies, approximately one week
  doses administered without clinically relevant side effects: up to 900 mg/day
[2]; compared to inhaled corticosteroids (ICS)
  risk of mental health side effects: no increased risk
[2]; patients with a psychiatric history, compared to ICS patients
  risk of outpatient depression: decreased risk

## COc1ccc(CCN2CCC(Nc3nc4ccccc4n3Cc3ccc(F)cc3)CC2)cc1 [astemizole]
[3]
  activity against SARS-CoV: astemizole was active against both
[4]
  activity against MERSCoV: astemizole was active against both
[5]
  cardiac toxicity: prolongation of the QTc interval

## O=C(O)COCCN1CCN([C@H](c2ccccc2)c2ccc(Cl)cc2)CC1 [Levocetirizine]
[6]
  enhanced receptor affinity over first generation mepyramine: 5 ×
[7]; histamine wheal and flare data
  potency among the five modern generation antihistamines: most potent
[7]; levocetirizine 5 mg per day versus fexofenadine 180 mg per day
  effectiveness versus fexofenadine: more effective than fexofenadine
[8]
  activator protein-1 (AP-1) activity: inhibit
[9]
  tumor necrosis factor-a induced production of the chemokine RANTES: decrease
[10]
  quality of life (SF-36): improved quality of life across all treatment domains; also recorded: independently improve quality of life
[11]
  efficacy in CIU on titration: Titratable with increasing efficacy
In vivo
  time to steady state level: 40 h
[1]; studies in humans
  doses that can be safely administered: up to 30 mg/day
[12]; [13]
  HRV viral replication: inhibit
  HRV-induced ICAM-1: inhibit
  HRV-induced cytokine expression: inhibit
[12]; cell and clinical science
  antiviral activity against human rhinovirus-16 (HRV-16): Cell and clinical science-antiviral
